Results taken from patent US6559160B1, “Compounds and methods for modulating cxcr3 function” (Chemocentryx, Inc., priority 1999, dated 2003).

Columns and labels:
[1] = target: T1, CXCR3 (Homo sapiens, UniProt P49682); test: CXCR3 binding assay: inhibition of 125I-IP-10 binding to CXCR3-expressing cells; conditions: concentration required to reduce binding of labeled IP-10 to the receptor by 50%, approx. 3 hours at 4° C.
T1 construct: CXCR3-expressing cells were prepared according to standard methods and used in most assays
T1 sequence (P49682 1-368): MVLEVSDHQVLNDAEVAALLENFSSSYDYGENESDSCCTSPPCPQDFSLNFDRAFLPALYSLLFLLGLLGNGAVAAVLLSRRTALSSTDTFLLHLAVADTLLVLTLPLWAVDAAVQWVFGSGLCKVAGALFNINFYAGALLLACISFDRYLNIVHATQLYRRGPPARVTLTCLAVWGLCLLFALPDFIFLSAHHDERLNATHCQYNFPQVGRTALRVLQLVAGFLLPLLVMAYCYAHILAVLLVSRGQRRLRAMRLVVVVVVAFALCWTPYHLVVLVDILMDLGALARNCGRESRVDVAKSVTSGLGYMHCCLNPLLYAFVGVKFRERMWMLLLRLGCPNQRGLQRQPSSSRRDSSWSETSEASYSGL
Protocol: Source plates of chemical libraries were obtained from commercial vendors and contained individual compounds at 5 mg/mL in DMSO, or in some instances, at 1 mg/mL. From these, multiple compound plates containing 10 compounds in each well were made, and these were diluted in 20% DMSO to a concentration of 50 μg/mL (10 μg/mL for those beginning at 1 mg/mL). An aliquot of 20 μL of each mixture was put into the test plates, which were stored frozen until use.
CXCR3-expressing cells were prepared according to standard methods and used in most assays. The cells were cultured in IMDM-5% FBS, and harvested when the concentration was between 0.5-1.0×10^6 cells/mL. The cells were centrifuged and resuspended in assay buffer (20 mM HEPES, 80 mM NaCl, 1 mM CaCl2, 5 mM MgCl2, and with 0.2% bovine serum albumin, pH 7.1) to a concentration of 5.6×10^6 cells/mL. Using a Multi-Probe automated system, 0.09 mL of cells was added to each well of the assay test plates containing the compounds, followed by 0.09 mL of ^125I-Ip-10 (from New England Nuclear) diluted in assay buffer (final concentration ˜25-100 pM, with ˜50,000 cpm per well). The final concentration of the compounds was 1-5 μg/mL each. The plates were sealed and incubated for approximately 3 hours at 4° C. on a shaker platform. (In some experiments radiolabeled MIG was used.) The assay plates were harvested using Packard filter plates, pre-soaked in PEI solution, on the vacuum harvest apparatus. Scintillation fluid (35 μL) was added to each of the wells, the plates were sealed and counted in a Top Count scintillation counter. Control wells contained either diluent only (for total counts) or excess IP-10 (1 μg/mL, for non-specific binding) and were used to calculate the percent of total inhibition for each set of compounds. Further tests on individual compounds were carried out in the same manner. IC50 values are those concentrations required to reduce the binding of labeled IP-10 to the receptor by 50%.
The binding of IP-10 or MIG to CXCR3 was first optimized by testing various pH and salt concentrations for their effect in a homologous competition assay. Maximum binding of radiolabeled MIG takes place under low salt (80 mM) conditions, as compared to normal salt (140 mM), while there is no difference between pH 7.1 and 7.4.

[2] = system: 5 other chemokine receptors on activated lymphocytes; test: Signalling (calcium mobilization) by other chemokines on activated lymphocytes; format: cell-based, human
Protocol: Calcium mobilization assays were performed by labeling human peripheral blood lymphocytes (cultured in 10 ng/mL IL-2 for at least 12 days) with INDO-1 dye (45 min at room temperature), washing with PBS, and resuspending into flux buffer (HBSS with 1% fetal bovine serum). For each test, 1×10^6 cells were incubated at 37° C. in the cuvette of a PTI spectrometer, and the ratio of 400/490 nm emission was plotted over time (typically 2-3 minutes), with compounds added at 5 seconds, followed by IP-10 or other chemokines.

Row | SMILES | IC50 [1] [nM] | melting point [°C] | interference with signalling by other chemokines [2]
1 | CCCCCC(=O)N(CCN(C)C)C(C)c1nc2ccccc2c(=O)n1-c1ccc(F)cc1 (stereo not shown) [Compound 1.1] | > 5000 | – | –
2 | CCCCCCC(=O)N(CCN(C)C)C(C)c1nc2ccccc2c(=O)n1-c1ccc(F)cc1 (stereo not shown) [Compound 1.2] | > 5000 | – | –
3 | CCCCCCC(=O)N(CCN(C)C)C(C)c1nc2ccccc2c(=O)n1-c1ccc(OC)cc1 (stereo not shown) [Compound 1.3] | 800 to 5000 | – | –
4 | CCCCCCCC(=O)N(CCN(C)C)C(C)c1nc2ccccc2c(=O)n1-c1ccc(Br)cc1 (stereo not shown) [Compound 1.4] | 800 to 5000 | – | –
5 | CCCCCCCC(=O)N(CCN(C)C)C(C)c1nc2ccccc2c(=O)n1-c1ccc(OC)cc1 (stereo not shown) [Compound 1.5] | 800 to 5000 | – | –
6 | CCCCCCCC(=O)N(CCN(C)C)C(C)c1nc2ccccc2c(=O)n1-c1ccc(F)cc1 (stereo not shown) [Compound 1.6] | 800 to 5000 | – | –
7 | CCCCCCCCC(=O)N(CCN(C)C)C(C)c1nc2ccccc2c(=O)n1-c1ccc(C)cc1 (stereo not shown) [Compound 1.7] | > 5000 | – | –
8 | CCCCCCCCC(=O)N(CCN(C)C)C(C)c1nc2ccccc2c(=O)n1-c1ccc(Cl)cc1 (stereo not shown) [Compound 1.10] | ≤ 800 | – | –
9 | CCCCCCCCCC(=O)N(CCN(C)C)C(C)c1nc2ccccc2c(=O)n1-c1ccc(F)cc1 (stereo not shown) [Compound 1.11] | ≤ 800 | – | did not interfere with signalling by those chemokines
10 | CCCCCCCCCCCC(=O)N(CCN(C)C)C(C)c1nc2ccccc2c(=O)n1-c1ccc(Cl)cc1 (stereo not shown) [Compound 1.13] | 800 to 5000 | – | –
11 | CCCCCCCCCCCCCC(=O)N(CCN(C)C)C(C)c1nc2ccccc2c(=O)n1-c1ccc(F)cc1 (stereo not shown) [Compound 1.14] | ≤ 800 | – | –
12 | CCCCCCCCCC(=O)N(CCN(C)C)C(C)c1nc2c(OC)c(OC)c(OC)cc2c(=O)n1-c1ccc(F)cc1 (stereo not shown) [Compound 4.7] | – | 106.7 | –

The next lines start with results.

Row | IC50 [1] [nM] | melting point [°C] | SMILES | interference with signalling by other chemokines [2]
13 | ≤ 800 | – | CCCCCCCCC(=O)N(CCN(C)C)C(C)c1nc2ccccc2c(=O)n1-c1ccc(OC)cc1 (stereo not shown) [Compound 1.9] | –
14 | > 5000 | – | CCCCCCCCCC(=O)N(CCN(C)C)C(C)c1nc2ccccc2c(=O)n1-c1ccccc1 (stereo not shown) [Compound 1.12] | –
15 | ≤ 800 | – | CCCCCCCCCCCCCC(=O)N(CCN(C)C)C(C)c1nc2ccccc2c(=O)n1-c1ccc(OC)cc1 (stereo not shown) [Compound 1.15] | –
16 | – | 124.2 | CCCCCCCCCC(=O)N(CCN(C)C)C(C)c1nc2ccc(OC)cc2c(=O)n1-c1ccc(OC)cc1 (stereo not shown) [Compound 4.1] | –
17 | – | 121 | CCCCCCCCCC(=O)N(CCN(C)C)C(C)c1nc2ccc(C)cc2c(=O)n1-c1ccc(F)cc1 (stereo not shown) [Compound 4.4] | –
18 | – | 122.9 | CCCCCCCCCC(=O)N(CCN(C)C)C(C)c1nc2ccc(Cl)cc2c(=O)n1-c1ccc(F)cc1 (stereo not shown) [Compound 4.5] | –
